Assay results: patent publication US20160374911A1, “PLANT EXTRACT COMPOSITION FOR SKIN WHITENING AND REDUCING MELANIN AS WELL AS APPLICATION THEREOF” (CALIWAY BIOPHARMACEUTICALS CO., LTD., priority 2015, published 2016)

Target: T1, tyrosinase activity in mouse melanoma B16-F10 cells (Mus musculus, UniProt P11344)
T1 construct: Mouse melanoma B16-F10 cells were used; endogenous in cells; host or cells: mouse melanoma B16-F10 cells
T1 sequence (P11344 19-533): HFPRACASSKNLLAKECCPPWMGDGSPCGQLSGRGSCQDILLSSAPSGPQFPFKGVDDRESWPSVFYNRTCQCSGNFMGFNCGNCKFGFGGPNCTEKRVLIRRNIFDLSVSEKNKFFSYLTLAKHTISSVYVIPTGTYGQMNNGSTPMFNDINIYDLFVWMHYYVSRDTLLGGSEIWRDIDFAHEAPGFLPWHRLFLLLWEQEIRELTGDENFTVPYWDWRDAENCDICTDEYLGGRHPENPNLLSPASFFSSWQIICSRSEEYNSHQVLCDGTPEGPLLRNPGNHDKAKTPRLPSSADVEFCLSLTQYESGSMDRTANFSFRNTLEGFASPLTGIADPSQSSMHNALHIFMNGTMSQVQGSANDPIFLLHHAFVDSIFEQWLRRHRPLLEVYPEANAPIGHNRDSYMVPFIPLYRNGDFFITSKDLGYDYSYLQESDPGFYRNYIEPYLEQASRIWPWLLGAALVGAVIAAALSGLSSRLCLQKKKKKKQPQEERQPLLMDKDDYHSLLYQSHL
Experiment: Inhibition of tyrosinase (melanogenesis induction firstly, then administration), L-DOPA conversion
Type: cell-based
Conditions: 250 ppm arbutin, 6 ppm resveratrol, 8 ppm curcumin, 8 ppm compositions; 48 hours after α-MSH; absorbance 405 nm within 60 minutes

Row | activity of tyrosinase compared with control group (in words) | Structure (SMILES)
1 | reduced the activity of tyrosinase | OC[C@H]1O[C@@H](Oc2ccc(O)cc2)[C@H](O)[C@@H](O)[C@@H]1O [arbutin]
2 | reduced the activity of tyrosinase | COc1cc(/C=C/C(=O)CC(=O)/C=C/c2ccc(O)c(OC)c2)ccc1O [curcumin]
